Source: patent US10781183B2, “Small molecule inducers of reactive oxygen species and inhibitors of mitochondrial activity” (The Regents of the University of Michigan, priority 2016, dated 2020)
Where two headings read alike, the source gives them in different places.

What was measured:
BxPC-3 cells = assay: MTT cytotoxicity assay, BxPC-3; assay type: cell-based; conditions: Homo sapiens, three independent experiments
Procedure: (§1) MiaPaCa-2, Panc-1 and BxPC-3 pancreatic cancer cell lines were obtained from the ATCC. Normal pancreatic cells HPDE and HPNE were kindly provided (Translational Oncology Program, University of […], Ann Arbor, Mich.). Gemcitabine resistant cell line MiaPaCa-2-GR (gemcitabine resistant) was kindly provided (Department of Pathology, Wayne State University, Detroit, Mich.). All cell lines were cultured as monolayer and maintained in RPMI1640 supplemented with 10% fetal bovine serum (FBS) in a humidified atmosphere with 5% CO2 at 37° C. MiaPaCa-2-GR culture was supplemented with 200 nM gemcitabine.
(§2) Cytotoxicity of compounds was evaluated with 3-(4,5-dimethylthiazol-2-yl)-2,5-diphenyltetrazolium bromide (MTT) assay. Cells were placed in 96-well plate at 3000-8000 cells/well. After overnight attachment, compounds were added to the wells at sequential dilutions (30 nM-10 μM for most cell lines). After 72 h treatment, MTT was added into the media to a final concentration of 300 μg/mL. Cells were incubated for 3 h at 37° C., and the insoluble formazan converted by viable cells were dissolved in 150 μL of DMSO. Absorbance at 570 nm was read by microplate reader (Molecular devices, Sunnyvale, Calif.), and inhibition of cell proliferation was calculated using the following formula: Inhibition of cell proliferation (%)=(1−ODtreatment/ODcontrol)×100%

Panc-1 cells = assay: MTT cytotoxicity assay, Panc-1; assay type: cell-based; conditions: Homo sapiens, three independent experiments
Procedure: as §1, §2

MiaPaCa-2 cells = assay: MTT cytotoxicity assay, MiaPaCa-2; assay type: cell-based; conditions: Homo sapiens, MTT assay, Mean ± SD, three independent experiments
Procedure: as §1, §2

[1] = BXPC-3, 72 h, Table 1, 72 h, Mean ± SD
[2] = BXPC-3, Table 2, Mean ± SD, read-out: IC 50 BxPC-3
[3] = PANC-1, 72 h, Table 1, 72 h, Mean ± SD
[4] = PANC-1, Table 2, Mean ± SD, read-out: IC 50 Panc-1
[5] = MIA PaCa-2, 72 h, Table 1, 72 h
[6] = MIA PaCa-2, Table 2, read-out: IC 50 MiaPaCa-2

| SMILES | melting point | IC50 (BxPC-3 cells; [1]) | IC50 (BxPC-3 cells; [2]) | IC50 (Panc-1 cells; [3]) | IC50 (Panc-1 cells; [4]) | IC50 (MiaPaCa-2 cells; [5]) | IC50 (MiaPaCa-2 cells; [6]) |
| --- | --- | --- | --- | --- | --- | --- | --- |
| O=C1C=CC(=O)c2ncncc21 [QD323, quinazoline-5,8-dione] | > 320 °C |  |  |  |  |  |  |
| O=C1C(Nc2ccc(Oc3ccccc3)cc2)=CC(=O)c2ncncc21 [QD324, 6-((4-phenoxyphenyl)amino)quinazoline-5,8-dione] | 169 to 171 °C | 3.6 ± 0.4 µM | 3.6 ± 0.4 µM | 1.8 ± 0.2 µM | 1.8 ± 0.2 µM | 3.7 ± 0.7 µM | 3.7 ± 0.7 µM |
| O=C1C(Nc2ccc(OC(F)(F)F)cc2)=CC(=O)c2ncncc21 [QD327, 6-((4-(trifluoromethoxy)phenyl)amino)quinazoline-5,8-dione] | 114 °C | 0.9 ± 0.1 µM | 0.9 ± 0.1 µM | 0.9 ± 0.1 µM | 0.9 ± 0.1 µM | 1.4 ± 0.2 µM | 1.4 ± 0.2 µM |
| NS(=O)(=O)c1ccc(NC2=CC(=O)c3ncncc3C2=O)cc1 [QD328, 4-((5,8-dioxo-5,8-dihydroquinazolin-6-yl)amino)benzenesulfonamide] | > 320 °C | > 10 µM | > 10 µM | > 10 µM | > 10 µM | > 10 µM | > 10 µM |
| O=C1C(Nc2ccc(CO)cc2)=CC(=O)c2ncncc21 [QD329, 6-((4-(hydroxymethyl)phenyl)amino)quinazoline-5,8-dione] |  | 2.7 ± 0.3 µM | 5.7 ± 0.3 µM | 1 ± 0.2 µM | 1 ± 0.2 µM | 3.5 ± 1.3 µM | 3.5 ± 1.3 µM |
| NC(=O)c1ccc(NC2=CC(=O)c3ncncc3C2=O)cc1 [QD330, 4-((5,8-dioxo-5,8-dihydroquinazolin-6-yl)amino)benzamide] | > 320 °C | > 10 µM | > 10 µM | 6.3 ± 0.3 µM | 6.3 ± 0.3 µM | 8 ± 0.9 µM | 8 ± 0.9 µM |
| COC(=O)c1ccc(NC2=CC(=O)c3ncncc3C2=O)cc1 [QD331, Methyl 4-((5,8-dioxo-5,8-dihydroquinazolin-6-yl)amino)benzoate] | 226 to 230 °C | 5.8 ± 0.3 µM | 5.8 ± 0.3 µM | 1.1 ± 0.4 µM | 1.1 ± 0.4 µM | 2.2 ± 0.4 µM | 2.2 ± 0.4 µM |
| CCOC(=O)c1ccc(NC2=CC(=O)c3ncncc3C2=O)cc1 [QD332, Ethyl 4-((5,8-dioxo-5,8-dihydroquinazolin-6-yl)amino)benzoate] | 206 to 207 °C | 5.9 ± 0.1 µM | 5.9 ± 0.1 µM | 1.6 ± 0.3 µM | 1.6 ± 0.3 µM | 5.5 ± 1.5 µM | 5.5 ± 1.5 µM |
| O=C1C(Nc2cccc(B(O)O)c2)=CC(=O)c2ncncc21 [QD333, (3-((5,8-dioxo-5,8-dihydroquinazolin-6-yl)amino)phenyl)boronic acid] | 208 to 210 °C | > 10 µM | > 10 µM | 9 ± 1 µM | 9 ± 1 µM | > 10 µM | > 10 µM |
| O=C1C(Nc2ccc(-c3ccc(F)cc3)cc2)=CC(=O)c2ncncc21 [QD334, 6-((4′-fluoro-[1,1′-biphenyl]-4-yl)amino)quinazoline-5,8-dione] | 285 to 289 °C | 4.4 ± 0.9 µM | 4.4 ± 0.9 µM | 3.2 ± 0.8 µM | 3.2 ± 0.8 µM | 3.5 ± 1 µM | 3.5 ± 1 µM |
| COc1ccc(-c2ccc(NC3=CC(=O)c4ncncc4C3=O)cc2)cc1 [QD336, 6-((4′-methoxy[1,1′-biphenyl]-4-yl)amino)quinazoline-5,8-dione] | 270 to 272 °C | 3.5 ± 0.5 µM | 3.5 ± 0.5 µM | 2.3 ± 0.3 µM | 2.3 ± 0.3 µM | 2.1 ± 0.5 µM | 2.1 ± 0.5 µM |
| Nc1ccc(-c2ccc(NC3=CC(=O)c4ncncc4C3=O)cc2)cc1 [QD337, 6-((4′-amino-[1,1′-biphenyl]-4-yl)amino)quinazoline-5,8-dione] | > 320 °C | 3.5 ± 0.6 µM | 3.5 ± 0.6 µM | 3.7 ± 0.1 µM | 3.7 ± 0.1 µM | 2.5 ± 0.2 µM | 2.5 ± 0.2 µM |
| O=C(NCCC[P+](c1ccccc1)(c1ccccc1)c1ccccc1)c1ccc(NC2=CC(=O)c3ncncc3C2=O)cc1 [QD340, (3-(4-((5,8-dioxo-5,8-dihydroquinazolin-6-yl)amino)benzamido)propyl) triphenylphosphonium bromide] |  | 21.5 ± 2.3 µM | 21.5 ± 2.3 µM | 11.7 ± 1.5 µM | 11.7 ± 1.5 µM | 15.3 ± 2.5 µM | 15.3 ± 2.5 µM |
| COc1ccc(NC2=CC(=O)c3ncncc3C2=O)cc1OC [QD355, 6-((3,4-dimethoxyphenyl)amino)quinazoline-5,8-dione] |  | 1.5 ± 0.2 µM | 1.5 ± 0.2 µM | 0.9 ± 0.3 µM | 0.9 ± 0.3 µM | 1.8 ± 0.1 µM | 1.8 ± 0.1 µM |
| COc1cc(NC2=CC(=O)c3ncncc3C2=O)cc(OC)c1 [QD357, 6-((3,5-dimethoxyphenyl)amino)quinazoline-5,8-dione] |  | 16.3 ± 1.5 µM | 16.3 ± 1.5 µM | 7.2 ± 0.8 µM | 7.2 ± 0.8 µM | 7.7 ± 2 µM | 7.7 ± 2 µM |
| O=C(NCCC[P+](c1ccccc1)(c1ccccc1)c1ccccc1)c1cccc(NC2=CC(=O)c3ncncc3C2=O)c1 [QD359, (3-(3-((5,8-dioxo-5,8-dihydroquinazolin-6-yl)amino)benzamido)propyl) triphenylphosphonium bromide] |  | 21.3 ± 2.5 µM | 21.3 ± 2.5 µM | 14.3 ± 1.5 µM | 14.3 ± 1.5 µM | 16.3 ± 3.6 µM | 16.3 ± 3.5 µM |
| O=C1C(Nc2cccc(-c3ccccc3)c2)=CC(=O)c2ncncc21 [QD385, 6-(Biphenyl-3-ylamino)quinazoline-5,8-dione] | 199 to 200 °C |  |  |  |  |  |  |
| O=C1C(Nc2ccc(-c3ccc(Cl)cc3)cc2)=CC(=O)c2ncncc21 [QD386, 6-(4′-Chlorobiphenyl-4-ylamino)quinazoline-5,8-dione] | 292 to 293 °C |  |  |  |  |  |  |
| O=C1C(Nc2ccc(-c3cc(Cl)cc(Cl)c3)cc2)=CC(=O)c2ncncc21 [QD387, 6-(3′,5′-Dichlorobiphenyl-4-ylamino)quinazoline-5,8-dione] | 260 to 261 °C |  |  |  |  |  |  |
| O=C1C(Nc2ccc(N3CCCCC3)cc2)=CC(=O)c2ncncc21 [QD388, 6-(4-(Piperidin-1-yl)phenylamino)quinazoline-5,8-dione] | 209 °C |  |  |  |  |  |  |
| O=C1C(Nc2ccc(N3CCOCC3)cc2)=CC(=O)c2ncncc21 [QD389, 6-(4-Morpholinophenylamino)quinazoline-5,8-dione] | 226 to 227 °C |  |  |  |  |  |  |
| O=C1C(Nc2cccc3c2-c2ccccc2C3)=CC(=O)c2ncncc21 [QD390, 6-(9H-Fluoren-4-ylamino)quinazoline-5,8-dione] | 217 °C |  |  |  |  |  |  |
| O=C1C(Nc2ccc3c(c2)Cc2ccccc2-3)=CC(=O)c2ncncc21 [QD391, 6-(9H-Fluoren-2-ylamino)quinazoline-5,8-dione] | 236 to 237 °C |  |  |  |  |  |  |
| CCc1ccc(-c2ccc(NC3=CC(=O)c4ncncc4C3=O)cc2)cc1 [QD392, 6-(4′-Ethylbiphenyl-4-ylamino)quinazoline-5,8-dione] | 247 °C |  |  |  |  |  |  |
| O=C1C(Nc2ccc(C3CCCCC3)cc2)=CC(=O)c2ncncc21 [QD393, 6-(4-Cyclohexylphenylamino)quinazoline-5,8-dione] | 234 °C |  |  |  |  |  |  |
| O=C1C(Nc2ccc(-c3ccccn3)cc2)=CC(=O)c2ncncc21 [QD395, 6-(4-(Pyridin-2-yl)phenylamino)quinazoline-5,8-dione] | 239 °C |  |  |  |  |  |  |
